The experiment has as its system 439559-082-T-J2-PDC spheroids viability. Put plainly: Anticancer human tumor 439559-082-T-J2-PDC patient-derived colon adenocarcinoma cell line growth inhibition [GQUAD]. As to conditions: for viability, T/C: stronger effect = lower value. From the text: DNA G-quadruplex Stabilizer Agents in Combinations in Complex Spheroids
A high-throughput screen of multi-cell type tumor spheroids was designed to identify active combinations of DNA G-quadruplex stabilizer agents and targeted small molecules. Complex spheroids include a stromal component modeled by human endothelial cells (HUVEC) and fibroblasts modeled by human mesenchymal stem cells (MSCs). The concentration ranges selected for each drug and investigational agent were based upon clinically achievable concentrations if the clinical Cmax of the agent was known.
Compounds. The drugs and investigational agents: pidnarulex (CX-5461; NSC782164), APTO-253 (NSC789042), BRACO-19 (NSC847499), peposertib (NSC802822), ceralasertib (NSC780249), elimusertib (NSC800525), camonsertib (NSC841442), AZD-1390 (NSC803789), olaparib (NSC753686), talazoparib (NSC767125), ART-558 (NSC835418), sotorasib (NSC818433), MRTX-1133 (NSC836407), SN-38 (NSC673596), topotecan (NSC609699), etoposide (NSC141540), doxorubicin (NSC123127), gemcitabine (NSC613327), 5-fluorouracil (NSC19893), paclitaxel (NSC125973), vemurafenib (NSC761431), panobinostat (NSC761190), R-306465 (JNJ-16241199; NSC773264), adavosertib (NSC754352), TP-3654 (NSC805149), carboplatin (NSC241240), KSQ-4279 (NSC840948), and staurosporine (NSC755774) were obtained from the National Cancer Institute (NCI) Developmental Therapeutics Program Chemical Repository (34). The FDA-approved anticancer drug set is available from the NCI Developmental Therapeutics Program. […] The stock solutions were prepared in dimethyl sulfoxide (DMSO, Sigma-Aldrich, St. Louis, MO, cat. D2650) at 800-fold the tested concentration and stored at -70 degrees C prior to their use. All drugs and investigational agents were tested over a range starting from a high concentration at or near the clinical Cmax and decreasing in half-log increments. If the clinical Cmax for an agent had not been determined, the highest concentration tested was 10 microM.
2.3 Cell Culture. All cells were maintained in an incubator at 37 degrees C and 5% CO2 with 95% humidity. The PDC lines were cultured according to standard operating procedures established by the NCI PDMR. All PDCs were thawed and cultured in Matrigel-coated flasks prepared with a working solution of 1X Ham's F-12 nutrient mix, without supplementation (Invitrogen, cat. 11765054), 100 U/mL penicillin-streptomycin (Invitrogen, cat. 15140122), and 2.5% Matrigel (Corning Inc., cat. 354248) for the first three passages. The 857933-349-R-J2-PDC line was cultured in 6C/Colon 1B media, which includes advanced DMEM/F-12 (Thermo Fisher Scientific, cat. 12634028), 10 mM HEPES (Thermo Fisher Scientific, cat. 15630080), 1X GlutaMAX supplement (Thermo Fisher Scientific, cat. 35050061), 0.1 mg/mL primocin (InvivoGen, cat. ant-pm-2), 10% defined fetal bovine serum, heat inactivated (HyClone Laboratories Inc., cat. SH30070.03HI), 50% L-WRN conditioned media (ATCC, cat. CRL-3276), 1.25 mM N-Acetyl-L-cysteine (Sigma-Aldrich, cat. A9165), 10 mM nicotinamide (Sigma-Aldrich, cat. N0636), 1X B-27 supplement (Thermo Fisher Scientific, cat. 17504044), 1X N-2 supplement (Thermo Fisher Scientific, cat. 17502048), 10 microM Y-27632 dihydrochloride (Tocris Bioscience, cat. 1254), and 50 ng/mL human EGF recombinant protein (Thermo Fisher Scientific, cat. PHG0311). The 485176-168-R4-J1-PDC line was cultured in Panc media, which includes all 6C/Colon 1B media components plus 100 ng/mL human FGF-10 (Thermo Fisher Scientific, cat. 100-26), 500 nM SB-431542 (Selleckchem, cat. S1067), and gastrin (Tocris, cat. 3006).
[…]

The mark [1] stands for this setting: curve of first compound, second compound 0.0316 µM.
Setting [2] is: curve of first compound, second compound 0.1 µM.
Where [3] appears, read: curve of first compound, second compound 0.316 µM.
[4] abbreviates: curve of first compound, second compound 1 µM.
Setting [5] is: curve of first compound, second compound 3.16 µM.
Setting [6] is: curve of first compound, second compound 10 µM.
[7] abbreviates: second compound 0.0316 µM, first compound 0.0316 µM.
The mark [8] stands for this setting: second compound 0.0316 µM, first compound 0.1 µM.
The mark [9] stands for this setting: second compound 0.0316 µM, first compound 0.316 µM.
Setting [10] is: second compound 0.0316 µM, first compound 1 µM.
[11] abbreviates: second compound 0.0316 µM, first compound 3.16 µM.
The mark [12] stands for this setting: second compound 0.0316 µM, first compound 10 µM.
Setting [13] is: second compound 0.1 µM, first compound 0.0316 µM.
[14] abbreviates: second compound 0.1 µM, first compound 0.1 µM.
Setting [15] is: second compound 0.1 µM, first compound 0.316 µM.
[16] abbreviates: second compound 0.1 µM, first compound 1 µM.
The mark [17] stands for this setting: second compound 0.1 µM, first compound 3.16 µM.
The mark [18] stands for this setting: second compound 0.1 µM, first compound 10 µM.
[19] abbreviates: second compound 0.316 µM, first compound 0.0316 µM.
Setting [20] is: second compound 0.316 µM, first compound 0.1 µM.
The mark [21] stands for this setting: second compound 0.316 µM, first compound 0.316 µM.
The mark [22] stands for this setting: second compound 0.316 µM, first compound 1 µM.
Setting [23] is: second compound 0.316 µM, first compound 3.16 µM.
[24] abbreviates: second compound 0.316 µM, first compound 10 µM.
[25] abbreviates: second compound 1 µM, first compound 0.0316 µM.
Where [26] appears, read: second compound 1 µM, first compound 0.1 µM.
[27] abbreviates: second compound 1 µM, first compound 0.316 µM.
Setting [28] is: second compound 1 µM, first compound 1 µM.
The mark [29] stands for this setting: second compound 1 µM, first compound 3.16 µM.
Setting [30] is: second compound 1 µM, first compound 10 µM.
[31] abbreviates: second compound 3.16 µM, first compound 0.0316 µM.
Setting [32] is: second compound 3.16 µM, first compound 0.1 µM.
Where [33] appears, read: second compound 3.16 µM, first compound 0.316 µM.
Setting [34] is: second compound 3.16 µM, first compound 1 µM.
The mark [35] stands for this setting: second compound 3.16 µM, first compound 3.16 µM.
Where [36] appears, read: second compound 3.16 µM, first compound 10 µM.
Where [37] appears, read: second compound 10 µM, first compound 0.0316 µM.
Where [38] appears, read: second compound 10 µM, first compound 0.1 µM.
Where [39] appears, read: second compound 10 µM, first compound 0.316 µM.
Where [40] appears, read: second compound 10 µM, first compound 1 µM.
Where [41] appears, read: second compound 10 µM, first compound 3.16 µM.
[42] abbreviates: second compound 10 µM, first compound 10 µM.

The results in this text go back to PubChem BioAssay AID2060510 (Molecular Pharmacology Branch, DTP, NCI, 2025).

Each structure is given as a SMILES string. “And” between values parts separate entries of the source, which are not always exact repeats. Equal values may be shown once.
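Note: spheroids exposed to the agents for 7 days before readout.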
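Throughout, for viability, T/C: percent of luminescence signal in DMSO vehicle wells taken as 100% viability.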

In general, viability, T/C refers to the result in the treated group divided by that in the control group, in per cent. In general, IC50 refers to the point on the concentration scale where inhibition reaches its midpoint. As to `C=CCn1c(=O)c2cnc(Nc3ccc(N4CCN(C)CC4)cc3)nc2n1-c1cccc(C(C)(C)O)n1`, the viability, T/C was 109% and 94.2% and 108% (compound 0.0316 µM); 91.1% and 90.4% and 90.3% (compound 0.1 µM); 86.3% and 89.2% and 88% (compound 0.316 µM); 104% and 78.4% and 93.7% (compound 1 µM); 110% and 62.9% and 53.1% (compound 3.16 µM); 43.5% and 20.1% and 21.9% (compound 10 µM). Under “curve of compound”, the IC50 was 8.76 µM and 4.36 µM and 3.55 µM.

Turning to `CC(C)(O)C1CCC(Nc2ccc3ncc(-c4cccc(C(F)(F)F)c4)n3n2)CC1` (stereo unspecified), the viability, T/C runs as follows: (compound 0.0316 µM) 100% and 101% and 106%; (compound 0.1 µM) 76.5% and 92.8% and 98.9%; (compound 0.316 µM) 60.8% and 103% and 99.9%; (compound 1 µM) 57.9% and 71.8% and 90%; (compound 3.16 µM) 53.2% and 7.83% and 15.9%; (compound 10 µM) 49.5% and 12.5% and 13.8%. For the same compound, where the note is “curve of compound”, the IC50 is > 10 µM and 1.5 µM and 1.86 µM.

Regarding `CCCS(=O)(=O)Nc1ccc(F)c(C(=O)c2c[nH]c3ncc(-c4ccc(Cl)cc4)cc23)c1F`, the viability, T/C is 96.1% and 95.7% and 105% (compound 0.0316 µM); 90.8% and 96.3% and 99.1% (compound 0.1 µM); 94.7% and 102% and 103% (compound 0.316 µM); 71.9% and 107% and 96.1% (compound 1 µM); 53.8% and 108% and 106% (compound 3.16 µM); 20.2% and 54.8% and 54.9% (compound 10 µM). In addition, where the note is “curve of compound”, the IC50 was 3.43 µM and > 10 µM.

As for `COc1ncnc(C2CC2)c1-c1ncc2cnn(Cc3ccc(-c4nc(C(F)(F)F)cn4C(C)C)cc3)c2n1`, the viability, T/C reads like this: (compound 0.0316 µM) 100% and 106% and 101%; (compound 0.1 µM) 101% and 109% and 97.2%; (compound 0.316 µM) 100% and 90.9% and 94.3%; (compound 1 µM) 104% and 89% and 94.3%; (compound 3.16 µM) 98.7% and 81.9% and 104%; (compound 10 µM) 98.1% and 57.4% and 89.5%. For the same compound, the IC50 (curve of compound) is more than 10 µM.

With `O=C(NO)c1cnc(N2CCN(S(=O)(=O)c3ccc4ccccc4c3)CC2)nc1`, the viability, T/C (compound 0.0316 µM) was 84.3% and 92.9% and 85.8%; the viability, T/C (compound 0.1 µM) is 81.2% and 79.9% and 84.2%; the viability, T/C (compound 0.316 µM) was 84% and 62.6% and 64.7%. The IC50 (curve of compound) was 1.76 µM and 0.401 µM and 0.438 µM.

`COc1cccc2c1C(=O)c1c(O)c3c(c(O)c1C2=O)CC(O)(C(=O)CO)CC3OC1CC(N)C(O)C(C)O1` (stereo unspecified) + CN(C)c1ccc(Nc2c3ccc(NC(=O)CCN4CCCC4)cc3nc3cc(NC(=O)CCN4CCCC4)ccc23)cc1: the IC50 is, setting by setting: under setting [1], 5.76 µM; under setting [2], 7.85 µM; under setting [3], 6.45 µM; under setting [4], 5.9 µM; under setting [5], 5.07 µM; under setting [6], 7.92 µM. Also, the viability, T/C reads like this: under setting [7], 106%; under setting [8], 86.7%; under setting [9], 93.4%; under setting [10], 77.5%; under setting [11], 62.2%; under setting [12], 38.8%. For the same compound, the viability, T/C by setting is: under setting [13], 93.8%; under setting [14], 95.5%; under setting [15], 89.1%; under setting [16], 73.2%; under setting [17], 59.1%; under setting [18], 47.4%. Also, the viability, T/C was 96.8% under setting [19]; 101% under setting [20]; 91.9% under setting [21]; 83.5% under setting [22]; 60.6% under setting [23]; 43.4% under setting [24]. For the same compound, the viability, T/C under setting [25] is 91.3%; the viability, T/C under setting [26] was 99.9%; the viability, T/C under setting [27] is 89.8%; the viability, T/C under setting [28] is 86.1%; the viability, T/C under setting [29] was 59.4%; the viability, T/C under setting [30] is 42%. For the same compound, the viability, T/C is 94.6% under setting [31]; 96.1% under setting [32]; 84% under setting [33]; 84.9% under setting [34]; 54.8% under setting [35]; 42.4% under setting [36]. For the same compound, the viability, T/C under setting [37] was 88.7%; the viability, T/C under setting [38] is 102%; the viability, T/C under setting [39] is 82.4%; the viability, T/C under setting [40] is 77.8%; the viability, T/C under setting [41] was 62.4%; the viability, T/C under setting [42] was 46.8%.

For `O=c1[nH]cc(F)c(=O)[nH]1` + CN(C)c1ccc(Nc2c3ccc(NC(=O)CCN4CCCC4)cc3nc3cc(NC(=O)CCN4CCCC4)ccc23)cc1, the IC50 runs as follows: under setting [1], more than 10 µM; under setting [2], more than 10 µM; under setting [3], more than 10 µM; under setting [4], more than 10 µM; under setting [5], more than 10 µM; under setting [6], more than 10 µM. Also, the viability, T/C runs as follows: under setting [7], 101%; under setting [8], 103%; under setting [9], 86.6%; under setting [10], 81.2%; under setting [11], 75.7%; under setting [12], 76%. Also, the viability, T/C was 115% under setting [13]; 106% under setting [14]; 89% under setting [15]; 84.1% under setting [16]; 77.2% under setting [17]; 69.1% under setting [18]. Moreover, the viability, T/C reads like this: under setting [19], 98.2%; under setting [20], 105%; under setting [21], 85.9%; under setting [22], 80.4%; under setting [23], 75%; under setting [24], 75.2%. Moreover, the viability, T/C is, setting by setting: under setting [25], 97.2%; under setting [26], 104%; under setting [27], 89%; under setting [28], 81.3%; under setting [29], 74.6%; under setting [30], 81.8%. The viability, T/C is 88.8% under setting [31]; 102% under setting [32]; 85.5% under setting [33]; 73.9% under setting [34]; 73.3% under setting [35]; 72.1% under setting [36]. Moreover, the viability, T/C reads like this: under setting [37], 96.4%; under setting [38], 93.1%; under setting [39], 81.5%; under setting [40], 74.6%; under setting [41], 70.2%; under setting [42], 73.5%.
